{
  "source": "patent US20250009695A1",
  "about": "“COMPOSITIONS AND METHODS FOR PROMOTING GLYCOGEN SYNTHASE ACTIVITY AND AUGMENTING GLYCOGEN STORAGE CAPABILITY” (NANJING NUTRABUILDING BIO-TECH CO., LTD., priority 2021, published 2025)",
  "key": {"[1]": {"test": "Effect of oral BAIBA administration on liver and skeletal muscle glycogen levels in obese (HFD) mice", "assay_type": "in vivo", "conditions": "for hepatic glycogen levels (change, in words) / muscle glycogen levels (change, in words): HFD mice, better than exercise alone; for Liver glycogen / Muscle glycogen: obese mice on HFD, oral, week 9-16, P < 0.05 vs Model; for Liver glycogen: main lobe of liver; for Muscle glycogen: soleus muscle", "source_text": "Post quarantine, animals were acclimatized for one week and subsequently the animals were randomized based on body weight stratification. Initially, mice were allocated broadly into two groups with one group receiving the Normal Diet (ND) representing normal subjects and the other receiving a defined High Fat Diet (HFD) representing obese subjects. The HFD was a defined lard-based diet procured from Research Diets, New Jersey, USA (Product No.—D12492, with 60 Kcal % from fat, 20 Kcal % from proteins, and 20 Kcal % from carbohydrates; Lot no. 20050105 and expiry date 30 Nov. 2020). The ND was a defined control diet procured from Hylasco Biotechnology Pvt. Ltd, manufactured by PMI Nutrition International (Batch no. MAY06202 and expiry date February 2021) containing similar nutrients as HFD but with 13 Kcal % from fat, 17 Kcal % from proteins, and […].\nThe mice in the respective groups were put on ND and HFD for 8 weeks starting at age of ˜8 weeks. Food was offered twice a week by replacing the left-over feed with fresh feed and total weekly feed consumption was calculated and expressed as g feed/day/animal. Bodyweight was recorded once a week. At the end of 8 weeks (Day 57), mean body weight was measured, and animals were randomized based on body weight stratification and grouped separately into respective ND and HFD groups shown in the following experimental design. After the feeding/induction period (Week 1 to 8), the treatment period was from Week 9 to Week 16. A total of 36 mice were randomly grouped into six groups with n=6 in each group. Control Group: Normal mice, maintained on normal diet for 8 weeks, receiving neither exercise nor L-BAIBA treatment. Model Group: Obese mice, maintained on HFD for 8 weeks, receiving neither exercise nor L-BAIBA treatment. Exercise Group: Obese mice, maintained on HFD for 8 weeks, receiving only exercise and no L-BAIBA treatment. BAIBA Group: Obese mice, maintained on HFD for 8 weeks, receiving only LBAIBA treatment and no exercise. Exercise+BAIBA Group: Obese mice, maintained on HFD for 8 weeks, receiving L-BAIBA treatment and exercise.\nA regular treadmill (PowerMax) used by humans was availed for subjecting mice to daily exercise. A special lane box made of Perspex was used to fabricate the treadmill's running platform, forming a modified 6-lane rodent treadmill allowing 6 animals to run simultaneously. The mice in the specified groups were exercised daily throughout the treatment period (week 9-16). Exercise consisted of treadmill running at a speed 3.0 m/min with no inclination of the treadmill. Mice were allowed to freely explore the treadmill until each mouse had explored its lane and the treadmill was turned on with a slow increase in the speed until animals begin running at set speed. During the first week of the treatment period, as an introduction the mice were forced to running exercise for 8 minutes. Subsequently, the exercise duration was increased to 9 minutes during the following week. The exercise duration was finally set to 10 minutes daily for the rest of weeks. Exercise took place in a room separated from the actual housing room to which all mice were transferred and kept during the exercise procedures in order to minimize environmental confounders among the mice not subjected to the exercise protocol. […] Entire procedure was supervised by study personnel and no abnormal behavior of animals was observed. Forced treadmill exercise was carried out at preferred lux and noise free conditions.\nAfter completion of 8 weeks of experimentation (at the end of treatment on the day 114), animals were euthanized using an overdose of isoflurane (20% v/v in propylene glycol in a glass vacuum desiccator). The whole soleus muscle tissues and a sample of the main lobe of the liver were used to measure glycogen content using a modified protocol described in Methods in Enzymology Vol. III (Colowick and Kaplan, 1957)."}, "[2]": {"test": "Effect of BAIBA on liver and skeletal muscle glycogen content in normal mice (ELISA kits)", "assay_type": "in vivo, C57 mice", "conditions": "oral gavage 2 weeks, compared to Exercise group; for glycogen levels in liver tissue (change, in words): FIG. 1; for glycogen levels in muscle tissue (change, in words): FIG. 3", "experimental": "(§1) SPF-grade male C57 mice (8 weeks old) were purchased from Nanjing Qinglongshan Laboratory Animal Breeding Center. Mice were housed individually in a steel cage in a room at 24° C. with a 12:12 h (Light:Dark) photoperiod and standard diet. Food and water were provided ad libitum. Forty mice were randomly divided into five groups. Control Group: Receiving neither exercise nor L-BAIBA treatment. Exercise Group: Receiving only exercise and no L-BAIBA treatment. BAIBA Group: Receiving only L-BAIBA treatment and no exercise. Pre-workout Group: Receiving L-BAIBA treatment before exercise. Post-workout Group: Receiving L-BAIBA treatment after exercise. Samples were administered orally (gavage volume was 0.1 mL/10 g per mouse) via a gavage tube for 2 weeks.\n(§2) The exercise consisted of treadmill running at a speed of 3.0 m/min with no inclination of the treadmill. Mice were allowed to freely explore the treadmill until each mouse had explored its lane and the treadmill was turned on with a slow increase in the speed until animals begin running at set speed. During the first week of the treatment period, as an introduction the mice were forced to running exercise for 8 minutes. Subsequently, the exercise duration was increased to 9 minutes during the following week. The exercise duration was finally set to 10 minutes daily for the rest of weeks.\nAfter 30 minutes of exercise on day 14th, mice were injected with 0.1 to 0.3 ml 1% thiopental sodium intraperitoneally in order to general anesthesia. The soleus of the hind limbs of mice and liver were taken to detect the content of glycogen contents and glycogen synthetase with ELISA Kits."}, "glycogen synthetase": {"tested_on": "glycogen synthetase", "test": "Effect of BAIBA on muscle glycogen synthetase content in normal mice (ELISA kits)", "assay_type": "in vivo, C57 mice", "conditions": "L-BAIBA administration, oral gavage 2 weeks, soleus, FIG. 4", "experimental": "as §1\nas §2, with “weeks. […]” for “weeks.”"}, "[3]": {"conditions": "combination of L-BAIBA and exercise"}, "[4]": {"conditions": "L-BAIBA treatment and daily treadmill exercise"}, "[5]": {"conditions": "L-BAIBA treatment only, no exercise"}, "[6]": {"conditions": "Post-workout Group (L-BAIBA after exercise)"}, "[7]": {"conditions": "Pre-workout Group (L-BAIBA before exercise)"}},
  "data": [
    {"compound": "CC(CN)C(=O)O", "note": "(stereo not drawn) [BAIBA, β-aminoisobutyric acid]", "values": [
      {"measurement": "hepatic glycogen levels (change, in words)", "setting": "[1]; L-BAIBA administration alone", "result": "significant increase"},
      {"measurement": "muscle glycogen levels (change, in words)", "setting": "[1]; L-BAIBA administration alone", "result": "significant increase"},
      {"measurement": "hepatic glycogen levels (change, in words)", "setting": "[1]; [3]", "result": "significant increase"},
      {"measurement": "muscle glycogen levels (change, in words)", "setting": "[1]; [3]", "result": "significant increase"},
      {"measurement": "Liver glycogen", "setting": "[1]; [4]", "result": "9.95 ± 0.61", "unit": "mg/g tissue"},
      {"measurement": "Muscle glycogen", "setting": "[1]; [4]", "result": "0.29 ± 0.08", "unit": "mg/g tissue"},
      {"measurement": "Liver glycogen", "setting": "[1]; [5]", "result": "9.66 ± 1.19", "unit": "mg/g tissue"},
      {"measurement": "Muscle glycogen", "setting": "[1]; [5]", "result": "0.31 ± 0.06", "unit": "mg/g tissue"},
      {"measurement": "glycogen levels in liver tissue (change, in words)", "setting": "[2]; [6]", "result": "increase"},
      {"measurement": "glycogen levels in muscle tissue (change, in words)", "setting": "[2]; [6]", "result": "increase"},
      {"measurement": "glycogen levels in liver tissue (change, in words)", "setting": "[2]; [7]", "result": "increase"},
      {"measurement": "glycogen levels in muscle tissue (change, in words)", "setting": "[2]; [7]", "result": "increase"},
      {"measurement": "muscle glycogen synthetase content (change, in words)", "setting": "glycogen synthetase", "result": "significant increase"}
    ]}
  ]
}
